Data from PubChem BioAssay (NCI).
Where “and” joins values, the source holds several entries; their conditions need not be identical. Identical values can stand only once.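 Protocol summary: plate cells (96-well), add compound at 5 concentrations, incubate 48 h, interpolate endpoints linearly. GI50: concentration for 50% inhibition of growth. TGI is the concentration that stops growth completely.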

Columns and labels:
Experiment in all cases: inhibition of tumour cell growth, NCI panel, 48 h
MDA-MB-231 breast = test system: MDA-MB-231 breast
MCF7 breast = test system: MCF7 breast
NCI-H226 lung = test system: NCI-H226 lung
NCI/ADR-RES ovarian = test system: NCI/ADR-RES ovarian
NCI-H23 lung = test system: NCI-H23 lung
T-47D breast = test system: T-47D breast
MDA-MB-435 = test system: MDA-MB-435
HOP-92 NSCLC = test system: HOP-92 NSCLC
BT-549 breast = test system: BT-549 breast
DU-145 prostate = test system: DU-145 prostate
UACC-257 melanoma = test system: UACC-257 melanoma
PC-3 prostate = test system: PC-3 prostate
HS 578T breast = test system: HS 578T breast

`C/C=C/CC(C)C(O)C1C(=O)NC(CC)C(=O)N(C)CC(=O)N(C)C(CC(C)C)C(=O)NC(C(C)C)C(=O)N(C)C(CC(C)C)C(=O)NC(C)C(=O)NC(C)C(=O)N(C)C(CC(C)C)C(=O)N(C)C(CC(C)C)C(=O)N(C)C(C(C)C)C(=O)N1C` (stereo unspecified) showed a GI50 (MDA-MB-231 breast) of 3.79 µM, a TGI (MDA-MB-231 breast) of 9.57 µM and a GI50 (MCF7 breast) of 2.71 µM. The TGI (MCF7 breast) was greater than 32.5 µM, the GI50 (NCI-H226 lung) was 2.29 µM and the TGI (NCI-H226 lung) was 6.66 µM and 13.8 µM. It also gave a GI50 (NCI/ADR-RES ovarian) of 1.44 µM, a TGI (NCI/ADR-RES ovarian) greater than 32.5 µM and a GI50 (NCI-H23 lung) of 1.2 µM. For the same molecule, the TGI (NCI-H23 lung) was > 32.5 µM and 28.6 µM, the GI50 (T-47D breast) was 0.842 µM and the TGI (T-47D breast) was 5.32 µM. It also gave a GI50 (MDA-MB-435) of 0.609 µM, a TGI (MDA-MB-435) of 4.62 µM and a GI50 (HOP-92 NSCLC) of 1.09 µM. The TGI (HOP-92 NSCLC) was 9.02 µM and 14.8 µM, the GI50 (BT-549 breast) was 2.02 µM and the TGI (BT-549 breast) was 6.92 µM. It also gave a GI50 (DU-145 prostate) of 1.43 µM, a TGI (DU-145 prostate) greater than 32.5 µM and a GI50 (UACC-257 melanoma) of 0.747 µM. For the same molecule, the TGI (UACC-257 melanoma) was 5.57 µM and 8.67 µM, the GI50 (PC-3 prostate) was 0.97 µM and the TGI (PC-3 prostate) was greater than 32.5 µM. The GI50 (HS 578T breast) was 3.36 µM and the TGI (HS 578T breast) was 28.2 µM.
